For orientation: melting point means the temperature of the solid-liquid transition. `O=[N+]([O-])c1ccc(/N=c2\snc3sc(C4COc5ccccc5O4)nn23)cc1` (stereo not shown) [Compound 1]: the melting point fell in the range of 210 to 211 °C.
Under `Oc1ccc(/N=c2\snc3sc(C4COc5ccccc5O4)nn23)c(O)c1` (stereo not shown) [Compound 2] stands 201 to 202 °C; under `Oc1cc(O)cc(/N=c2\snc3sc(C4COc5ccccc5O4)nn23)c1` (stereo not shown) [Compound 3], 200 to 201 °C; under `Oc1ccc(/N=c2\snc3sc(C4COc5ccccc5O4)nn23)cc1O` (stereo not shown) [Compound 5], 201 to 202 °C.
In turn, `Oc1ccc(O)c(/N=c2\snc3sc(C4COc5ccccc5O4)nn23)c1` (stereo not shown) [Compound 6] showed a melting point of 199 to 200 °C.
As for `Oc1cccc(/N=c2\snc3sc(C4COc5ccccc5O4)nn23)c1` (stereo not shown) [Compound 7], the figure is 191 to 192 °C; as for `Oc1cc(O)c(/N=c2\snc3sc(C4COc5ccccc5O4)nn23)c(O)c1` (stereo not shown) [Compound 8], 214 to 215 °C.
As to `CN(C)c1ccc(/N=c2\snc3sc(C4COc5ccccc5O4)nn23)cc1` (stereo not shown) [Compound 9], the melting point lay in the range of 206 to 207 °C.
Under `O=[N+]([O-])c1ccccc1/N=c1\snc2sc(C3COc4ccccc4O3)nn12` (stereo not shown) [Compound 10] stands 209 to 210 °C; under `Clc1ccc(/N=c2\snc3sc(C4COc5ccccc5O4)nn23)cc1` (stereo not shown) [Compound 13], 204 to 205 °C; under `COC(=O)c1ccc(/N=c2\snc3sc(C4COc5ccccc5O4)nn23)cc1` (stereo not shown) [Compound 14], 216 to 217 °C.
As for `Cc1ccccc1/N=c1\snc2sc(C3COc4ccccc4O3)nn12` (stereo not shown) [Compound 15], the figure is 188 to 189 °C; as for `Cc1ccc(/N=c2\snc3sc(C4COc5ccccc5O4)nn23)cc1` (stereo not shown) [Compound 16], 187 to 188 °C; as for `Clc1cccc(/N=c2\snc3sc(C4COc5ccccc5O4)nn23)c1` (stereo not shown) [Compound 17], 203 to 204 °C.
As for `Cc1cccc(/N=c2\snc3sc(C4COc5ccccc5O4)nn23)c1` (stereo not shown) [Compound 19], the figure is 186 to 187 °C.
`COc1ccc(/N=c2\snc3sc(C4COc5ccccc5O4)nn23)cc1O` (stereo not shown) [Compound 20] gave a melting point of 212 to 213 °C.
Under `Oc1cccc(/N=c2\snc3sc(C4COc5ccccc5O4)nn23)c1O` (stereo not shown) [Compound 22] stands 198 to 199 °C.
`Fc1ccccc1/N=c1\snc2sc(C3COc4ccccc4O3)nn12` (stereo not shown) [Compound 23] displayed a melting point of 193 to 194 °C.
Under `Fc1cccc(/N=c2\snc3sc(C4COc5ccccc5O4)nn23)c1` (stereo not shown) [Compound 24] stands 194 to 195 °C.
